In data set [1] the test system is Striped Flea Beetle (Phylotretta striolata). Put plainly: Striped flea beetle leaf-dip test on Chinese cabbage. It counts as in vivo. The conditions noted are these: 300 ppm, 72 hours after treatment, in comparison with untreated controls. As for the experimental part: B.10 Striped Flea Beetle (Phylotretta striolata)
The active compound is dissolved at the desired concentration in a mixture of 1:1 (vol:vol) distilled water:acetone. Add surfactant (Alkamuls® EL620) at the rate of 0.1% (vol/vol). The test solution is prepared at the day of use.
Leaves of Chinese cabbage were dipped in test solution and air-dried. Treated leaves were placed in pertri dishes lined with moist filter paper and inoculated with 20 adults. Mortality was recorded 72 hours after treatment. Feeding damage were also recorded using scale of 0-100%.

Data set [2] relates to Diamond Back Moth (plutella xylostella). Put plainly: Diamond back moth leaf-dip test on Chinese cabbage. In kind it is in vivo. The conditions noted are these: 300 ppm, recorded 24, 72 and 120 hours after treatment, in comparison with untreated controls. As to the method: (§1) If not otherwise specified the test solutions are prepared as follow:
(§2) The active compound is dissolved at the desired concentration in a mixture of 1:1 (vol:vol) distilled water:acteon. The test solution is prepared at the day of use and in general at concentrations of […].
B.3 Diamond Back Moth (plutella xylostella)
Leaves of Chinese cabbage were dipped in test solution and air-dried. Treated leaves were placed in petri dished lined with moist filter paper. Mortality was recorded 24, 72, and 120 hours after treatment.

Data set [3] concerns Red spider Mite (Tetranychus kanzawai). The data set is described as follows: Red spider mite test on sprayed cowpea beans. In kind it is in vivo. The conditions noted are these: 300 ppm, spray, after 72 h, in comparison with untreated controls. As for the experimental part: B.6 Red spider Mite (Tetranychus kanzawai)
The active compound was dissolved at the desired concentration in a mixture of 1:1 (v/v) distilled water:acetone. A surfactant (Alkamuls® EL 620) was added at the rate of 0.1% (v/v).
Potted cowpea beans of 7-10 days of age were cleaned with tap water and sprayed with 5 ml of the test solution using air driven hand atomizer. The treated plants were allowed to air dry and afterwards inculated with 20 or more mites by clipping a cassava leaf section with known mite population. Treated plants were placed inside a holding room at about 25-27° C. and about 50-60% relatice humidity.
ortality by counting the live mites 72 HAT. Percent mortality was assessed after 72 h.

For data set [4], the system named is Orchid Thrips (dichromothrips corbetti). Put plainly: Orchid thrips floral-immersion test. In kind it is in vivo. The conditions noted are these: 300 ppm, after 4 days, in comparison with untreated controls. As to the method:
B.4 Orchid Thrips (dichromothrips corbetti)
Dichromothrips corbetti adults used for bioassay are obtained from a colony maintained continuously under laboratory conditions. For testing purposes, the test compound is diluted to a concentration of 300 ppm (wt compound: vol diluent) in a 1:1 mixture of acetone:water (vol:vol), plus 0.01% vol/vol Kinetic® surfactant.
Thrips potency of each compound is evaluated by using a floral-immersion technique. Plastic petri dishes are used as test arenas. All petals of individual, intact orchid flowers are dipped into treatment solution and allowed to dry. Treated flowers are placed into individual petri dishes along with 10-15 adult thrips. The petri dishes are then covered with lids. All test arenas are held under continuous light and a temperature of about 28° C. for duration of the assay. After 4 days, the numbers of live thrips are counted on each flower, and along inner walls of each petri dish. The level of thrips mortality is extrapolated from pre-treatment thrips numbers.

Data set [5] has as its system Cotton Aphid (Aphis gossypi). The data set is described as follows: Cotton aphid spray test on infested cotton plants. The conditions noted are these: 120 h, after 5 days, in comparison with untreated controls. It counts as in vivo. The source says:
B.1 Cotton Aphid (Aphis gossypi)
The active compounds were formulated in cyclohexanone as a 10,000 ppm solution supplied in tubes. The tubes were inserted into an automated electrostatic sprayer equipped with an atomizing nozzle and they served as stock solutions for which lower dilutions were made in 50% acetone: 50% water (v/v). A nonionic surfactant (Kinetic®) was included in the solution at a volume of 0.01% (v/v).
Cotton plants at the cotyledon stage were infested with aphids prior to treatment by placing a heavily infested leaf from the main aphid colony on top of each cotyledon. Aphids were allowed to transfer overnight to accomplish an infestation of 80-100 aphids per plant and the host leaf was removed. The infested plants were then sprayed by an automated electrostatic plant sprayer equipped with an atomizing spray nozzle. The plants were dried in the sprayer fume hood, removed from the sprayer, and then maintained in a growth room under fluorescent lighting in a 24-hr photoperiod at 25° C. and 20-40% relative humidity. Aphid mortality on the treated plants, relative to mortality on untreated control plants, was determined after 5 days.

Data set [6] relates to antibodies against lysergic acid-bovine serum albumin conjugates. The conditions noted are these: antibodies raised in rabbits against lysergic acid conjugates; Arens et al, Planta Medica (1980); cited from earlier work.
For data set [7], the system named is Rice Green Leafhopper (Nephotettix virescens). The data set is described as follows: Rice green leafhopper test on sprayed rice seedlings. It counts as in vivo. The conditions noted are these: spray, after 72 hours, in comparison with untreated controls. As to the method: B.9 Rice Green Leafhopper (Nephotettix virescens)
Rice seedlings are cleaned and washed 24 hours before spraying. The active compounds are formulated in 50:50 acetone:water (vol:vol), and 0.1% vol/vol surfactant (EL 620) is added. Potted rice seedlings are sprayed with 5 ml test solution, air dried, placed in cages and inoculated with 10 adults. Treated rice plants are kept at about 28-29° C. and relative humidity of about 50-60%. Percent mortality is recorded after 72 hours.

For data set [8], the system named is yellowfever mosquito larvae (Aedes aegypti). The data set is described as follows: Larval mosquito water treatment assay. The conditions noted are these: 120 h.
For data set [9], the system named is Vetch Aphid (Megoura viciae). Put plainly: Vetch aphid leaf disk microtiter plate test. In kind it is in vivo. The conditions noted are these: foliar, 120 h, leaf disks sprayed, 5 days, in comparison with untreated controls. As for the experimental part: B.7 Vetch Aphid (Megoura viciae)
For evaluating control of vetch aphid (Megoura viciae) through contact or systemic means the test unit consisted of 24-well-microtiter plates containing broad bean leaf disks.
The compounds were formulated using a solution containing 75% v/v water and 25% v/v DMSO. Different concentrations of formulated compounds were sprayed onto the leaf disks at 2.5 μl, using a custom built micro atomizer, at two replications.
After application, the leaf disks were air-dried and 5-8 adult aphids placed on the leaf disks inside the microtiter plate wells. The aphids were then allowed to suck on the treated leaf disks and incubated at about 23±1° C. and about 50±5% relative humidity for 5 days. Aphid mortality and fecundity was then visually assessed.

In data set [10] the test system is Silverleaf Whitefly (Bemisia argentifolii). The data set is described as follows: Silverleaf whitefly test on sprayed cotton plants. In kind it is in vivo. The conditions noted are these: 72 h, spray, 3 days after treatment, in comparison with untreated controls. The source says:
B.5 Silverleaf Whitefly (Bemisia argentifolii)
The active compounds were formulated in cyclohexanone as a 10,000 ppm solution supplied in tubes. The tubes were inserted into an automated electrostatic sprayer equipped with an atomizing nozzle and they served as stock solutions for which lower dilutions were made in 50% acetone:50% water (v/v). A nonionic surfactant (Kinetic( ) was included in the solution at a volume of 0.01% (v/v).
Cotton plants at the cotyledon stage (one plant per pot) were sprayed by an automated electrostatic plant sprayer equipped with an atomizing spray nozzle. The plants were dried in the sprayer fume hood and then removed from the sprayer. Each pot was placed into a plastic cup and about 10 to 12 whitefly adults (approximately 3-5 days old) were introduced. The insects were collected using an aspirator and a nontoxic Tygon® tubing connected to a barrier pipette tip. The tip, containing the collected insects, was then gently inserted into the soil containing the treated plant, allowing insects to crawl out of the tip to reach the foliage for feeding. Cups were covered with a reusable screened lid. […] Mortality was assessed 3 days after treatment, compared to untreated control plants.

The test system of data set [11] is Green Peach Aphid (Myzus persicae). Put plainly: Green peach aphid spray test on bell pepper plants. In kind it is in vivo. The conditions noted are these: 120 h, after 5 days, in comparison with untreated controls. From the text:
B.8 Green Peach Aphid (Myzus persicae)
The active compounds are formulated in cyclohexanone as a 10,000 ppm solution supplied in tubes. The tubes are inserted into an automated electrostatic sprayer equipped with an atomizing nozzle and they served as stock solutions for which lower dilutions are made in 50% acetone: 50% water (v/v). A nonionic surfactant (Kinetic®) is included in the solution at a volume of 0.01% (v/v).
Bell pepper plants at the first true-leaf stage are infested prior to treatment by placing heavily infested leaves from the main colony on top of the treatment plants. Aphids are allowed to transfer overnight to accomplish an infestation of 30-50 aphids per plant and the host leaves are removed. The infested plants are then sprayed by an automated electrostatic plant sprayer equipped with an atomizing spray nozzle. The plants are dried in the sprayer fume hood, removed, and then maintained in a growth room under fluorescent lighting in a 24-hr photoperiod at about 25° C. and about 20-40% relative humidity. Aphid mortality on the treated plants, relative to mortality on untreated control plants, is determined after 5 days.

Data set [12] relates to Cowpea Aphid (aphis craccivora). Put plainly: Cowpea aphid spray test on potted cowpea plants. The conditions noted are these: assessed after 24, 72 and 120 hours, in comparison with untreated controls. It counts as in vivo. As for the experimental part:
as §1, §2
B.2 Cowpea Aphid (aphis craccivora)
Potted cowpea plants colonized with approximately 100-150 aphids of various stages were sprayed after the pest population has been recorded. Population reduction was assessed after 24, 72, and 120 hours.

The term mortality denotes the percentage killed. Read a low mortality as more survivors.

In the case of “N-methylcarbamoyl-(1aR,3aR,9bR)-1a,2,3,3a,4,6-hexahydro-1a,3-dimethyl-1H-cycloprop[c]indolo[4,3-ef]indole [compound 1-2]”, the mortality result in data set [1], in [2], in [3] and in data set [4] was “at least 75%” in each case.
On to `CN1CC2(C)CC23c2cccc4[nH]cc(c24)CC13` (stereo not drawn) [compound 1-1, cycloclavin], for which the mortality at 300 ppm in data set [5], in data set [7], in [10], in data set [11] and in [12] was at least 75% each time. Besides, the cross reaction activity entry in data set [6] was “did not show cross reaction activity”. This compound gave a mortality at 10 ppm in data set [8] of at least 60%. The compound further displayed a mortality at 2500 ppm in data set [9] of at least 75%.

These data come from patent publication US20150335021A1, “Cycloclavine and Derivatives Thereof for Controlling Invertebrate Pests” (BASF SE, priority 2012, published 2015).
